According to US9376700B2, “Methods of modifying N-termini of a peptide or protein using transferases” (The Trustees of the University of Pennsylvania, priority 2012, dated 2016):
Where “and” joins values, the source holds several entries; their conditions need not be identical. Equal values may be shown once. Read-outs that look alike come from different tables or passages of the source.

Assays:
V. vulnificus BpT = assay: AspAlaAcm ligation assay: BpT-catalyzed transfer from adenosyl donor to AspAlaAcm; assay type: biochemical; conditions: single addition of donor, 100 μM AspAlaAcm, 2.26 μM BpT, standard BpT-catalyzed transfer conditions
Experimental: Ligation test reactions with V. vulnificus Bpt were conducted in a manner identical to the AaT LysAlaAcm ligation assay with the following exceptions, 2.26 μM BpT was used rather than 2.26 μM AaT, 100 μM AspAlaAcm was used rather than 100 μM LysAlaAcm, and BpT Ligation Buffer (50 mM HEPES, pH 8, 150 mM KO, 10 mM MgCl2) was used rather than AaT Ligation Buffer.
(§1) The extent of transfer was evaluated by HPLC analysis of reactions with adenosyl donor, AaT or BpT, and an aminocoumarin-labeled reporter peptide (for AaT, LysAlaAcm was used as previously described by Tirrell and co-workers; for BpT, AspAlaAcm was used in an analogous fashion) (Connor et al., 2008, ChemBioChem 9:366-369). Monitoring LysAlaAcm or AspAlaAcm acylation in crude reaction mixtures using absorbance at 325 nm conveniently eliminates background due to other proteins and nucleic acids, although some non-natural amino acids such as naphthylalanine (Nap) and methoxycoumarinylalanine (Mcm) also absorb in this range.

[1] = molecular target: T1, E. coli aminoacyl transferase (AaT) (Escherichia coli, UniProt P0A8P1); assay: LysAlaAcm ligation assay: AaT-catalyzed transfer from aminoacyl adenosine donor to LysAlaAcm, HPLC at 325 nm; assay type: biochemical; set-up: made in house; host or cells: E. coli BL21-Gold (DE3), plasmid pEG6, Ni-NTA purified; conditions: for Transfer to LysAlaAcm by AaT (in words): reactions analyzed after 4 h; for Ligated Product Yield (%): 4 h
T1 sequence (P0A8P1 whole entry): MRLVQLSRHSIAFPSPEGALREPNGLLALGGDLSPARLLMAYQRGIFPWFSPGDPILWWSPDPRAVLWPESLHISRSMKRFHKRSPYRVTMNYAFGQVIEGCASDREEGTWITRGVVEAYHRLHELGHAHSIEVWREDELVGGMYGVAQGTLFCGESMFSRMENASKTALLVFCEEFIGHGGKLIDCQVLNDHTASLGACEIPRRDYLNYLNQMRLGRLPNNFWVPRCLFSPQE
Experimental: Each ligation reaction, 125 μL total volume, contained the following reagents: aminoacyl adenosine donor (1 mM), recombinant His10-tagged E. coli aminoacyl transferase (2.26 μM), and LysAlaAcm (100 μM) in the AaT Ligation Buffer (50 mM HEPES pH 8.0, 150 mm KCl, 10 mM MgCl2). The reaction mixtures were incubated at 37° C. for four hours and quenched with 1% acetic acid. The proteins were extracted from the reactions via acetone precipitation. The reactions were precipitated using 4× reaction volume of acetone and cooled at −20° C. for 1 h. Next, the reactions were centrifuged at 13,200 rpm at 4° C. for 20 min to separate the reaction from precipitated protein. The supernatant was transferred to fresh 1.5 mL centrifuge tubes and allowed for acetone evaporation overnight at room temperature. After acetone evaporation, the supernatant was dried in a Speedvac (Savant, Thermo Scientific, Fisher Inc.) for 30 min to remove residual acetone. The resulting reaction volume was dissolved up to 1.2 mL using Milli-Q water and analyzed by HPLC (gradient below) to determine ligation yield by integration of separated peak intensities monitored at 325 nm. Collected HPLC fractions were characterized through MALDI MS analysis. […] Reactions using Phe-pdCpA as donor were carried out in an identical fashion (Ellman, et al., 1991, Methods Enzymol. 202:301-336).
All HPLC analyses of LysAlaAcm ligations were monitored on an Agilent HPLC using a Waters C18 column (Milford, Mass.).
All HPLC analyses of LysAlaAcm ligations were monitored as described elsewhere herein (Gradient 1).
as §1
To evaluate substrate scope, reactions were analyzed after 4 h, when transfer should be complete for the fully enzymatic reaction with Phe tRNA synthetase (Connor et al., 2008, ChemBioChem 9:366-369).

[2] = HPLC analysis of donor hydrolysis in mock LysAlaAcm reactions without enzyme; assay type: physicochemical; conditions: mock reaction without AaT, AaT Ligation Buffer pH 8.0, 37° C., after 4 h
Experimental: The amino acid analog donor (4a-4z) was suspected to be hydrolytically unstable and was tested in mock LysAlaAcm reactions without enzyme present and then analyzed by HPLC. The mock LysAlaAcm reactions were performed as described in the LysAlaAcm Ligation Assay section; however, the AaT solution was replaced with water. Phe-A solutions were analyzed at 30 min, 1 h, and 4 h. Immediately following the reaction, the sample was diluted to 1,200 μL and injected onto the C18 HPLC column using Gradient 1. […] Additionally, 1 mM A and 1 mM Phe were injected on the HPLC to serve as standards to verify retention times. Note that the relative concentrations of 2′ and 3′ Phe-A would be different in an actual reaction where the 3′ Phe-A is preferentially consumed by AaT in the transfer reaction (Watanabe et al., 2007, Nature 449:867-871). The change in 2′:3′ ratio between 0 h and 30 min probably reflected the higher pH of the 30 min data (Taiji et al., 1983, Biochemistry 22:3220-3225).

[3] = molecular target: T2, E. coli aminoacyl tRNA transferase (AaT) (Escherichia coli, UniProt P0A8P1); assay: AaT-catalyzed α-casein N-terminal modification (Edman degradation, tryptic digest MALDI MS); assay type: biochemical; conditions: Phe donor, additional dose at 4 h, overnight
T2 construct: made in house; host or cells: E. coli BL21-Gold (DE3), plasmid pEG6, Ni-NTA purified
T2 sequence (P0A8P1 whole entry): as above
Experimental: HEPES pH 8.0, 1.50 mM KO, 10 mM MgCl2) and AaT (0.05 mg). The reaction mixture was incubated at 37° C. for 12 h, AaT was removed using Ni^2+ resin (Ni-NTA Superflow, Qiagen), and then buffer exchanged four times into phosphate buffered saline (PBS, 12 mM NaH2PO4, 50 mM NaCl, 4.7 mM KCl, pH 8.0) by Spectra/Por 1 dialysis tubing (Spectrum Laboratories; Rancho Dominguez, Calif.). Azf-modified α-casein was used directly after buffer exchange into PBS. Aliquots (1 nmol) of α-casein were diluted into PBS (22 μL) containing either fluorescein-alkyne (FlAlk, 91 μM) or propargylamine (Alk, 227 μM) for copper-catalyzed azide-alkyne cycloaddition (CuAAC). […] Reactions were boiled with gel loading dye LDS (Pierce; Rockford, Ill.) for 10 min at 95° C. and analyzed by SDS-PAGE. Fluorescence images were obtained with a Geldoc (BioRAD; Hercules, Calif.) using an excitation wavelength of 302 nm for detection of fluorescein. α-Casein was also directly visualized by Coomassie Brilliant Blue staining.
α-Casein-Azf (33 or α-casein (33 μg) was digested with sequencing grade modified Trypsin (0.6 μg) in 27 μL of 25 mM ammonium bicarbonate pH 7.5 (freshly prepared). Digestions were carried out at 37° C. for 14 h. Trypsin digest aliquots (1 μL) were combined with α-cyano-4-hydroxycinnamic acid (1 μL of a saturated solution in 1:1 H2O/CH3CN with 1% TFA) and analyzed by MALDI MS. […]

[4] = molecular target: T1, E. coli aminoacyl transferase (AaT)
Experimental: The LysAlaAcm ligation assay was used to analyze the kinetics of AaT with substrate 4a. The ligation assay was modified for ease of analysis as follows: The total reaction volume was scaled up to 590 μL and all reagents were maintained at the same concentrations as mentioned above, Five concentrations of 4a were monitored for a total reaction time of 30 min, with concentrations ranging from 0.05 to 1 mM.
Each 30 min kinetic experiment was done in triplicate with a total of fourteen 40 μL aliquots for all substrate concentrations.
Therefore, the reaction was characterized in terms of the Michaelis-Menten kinetic scheme in Equation 2.
To determine initial velocities, the primary kinetic data is fit to the hyperbolic Equation 3, which, though phenomenological, produces a high quality fit (R>0.99 for all 5 data sets). Data from the first two minutes were fit to a linear expression (Equation 4). A non-zero intercept is employed for improved quality of fit; this can be justified in terms of a rapid burst phase not captured in the 1 min resolution of this assay.
The initial velocities were then plotted as a function of Phe-A donor concentration and fit to Equation 5 to obtain kcat and KM values, where KM=(k−1+kcat)/k1 as depicted in FIG. 3B.
To characterize the enzymatic activity of AaT toward the present acyl adenosyl substrates, an HPLC assay was used to determine initial reaction rates to be fit to a standard Michaelis-Menten kinetic model.

[5] = molecular target: T1, E. coli aminoacyl transferase (AaT); assay: A/AMP/ATP/pdCpA inhibition studies of ligation with Phe donor 4a; assay type: biochemical; set-up: made in house; host or cells: E. coli BL21-Gold (DE3), plasmid pEG6, Ni-NTA purified; conditions: tested at 1 mM, 2.5 mM and 5 mM with Phe donor 4a
Experimental: Each ligation reaction was performed as described elsewhere herein.
To better understand limitations on the yield from AaT reactions, the possibilities of inhibition by hydrolyzed substrate or aminoacylated product were assessed. Since the acyl adenosine donor substrate is not regenerated during the reaction (unlike the aaRS/tRNA/AaT reaction), it was hypothesized that the adenosine byproduct might inhibit further acylation by binding to AaT. To investigate this possibility, adenosine was added to the reaction at varying concentrations and monitored the reaction timecourse by fluorescence spectroscopy and by HPLC.

[6] = single addition of 1 mM donor, 100 μM LysAlaAcm, 2.26 μM AaT, 37° C., no additive
[7] = 100 μM LysAlaAcm, 0.05 to 1 mM donor

CC(C)C[C@H](N)C(=O)O[C@@H]1[C@H](O)[C@@H](CO)O[C@H]1n1cnc2c(N)ncnc21 [4b, (S)-(2R,3R,4R,5R)-2-(6-amino-9H-purin-9-yl)-4-hydroxy-5-(hydroxymethyl)tetrahydrofuran-3-yl 2-amino-4-methylpentanoate]
Ligated Product Yield (%) (V. vulnificus BpT): 5%
Transfer to LysAlaAcm by AaT (in words) [1]: transferred efficiently
Ligated Product Yield (%) [1, 6]: 80.4 ± 0.9%

CC(C)SSC[C@H](N)C(=O)O[C@@H]1[C@H](O)[C@@H](CO)O[C@H]1n1cnc2c(N)ncnc21 [4l, (R)-(2R,3R,4R,5R)-2-(6-amino-9H-purin-9-yl)-4-hydroxy-5-(hydroxymethyl)tetrahydrofuran-3-yl 2-amino-3-(isopropyldisulfanyl)propanoate]
Ligated Product Yield (%) (V. vulnificus BpT): 20%
Ligated Product Yield (%) [1, 6]: 42.3%

Nc1ncnc2c1ncn2[C@@H]1O[C@H](CO)[C@@H](O)[C@H]1OC(=O)[C@@H](N)Cc1ccccc1 [4a, (S)-(2R,3R,4R,5R)-2-(6-Amino-9H-purin-9-yl)-4-hydroxy-5-(hydroxymethyl)tetrahydrofuran-3-2-amino-3-phenylpropanoate]
Donor hydrolysis [2]: completely hydrolyzed
Modification of α-casein N-terminus, Edman degradation [3]: quantitative addition of Phe
Km [4, 7]: 124 µM
kcat [4, 7]: 1.68±0.09×10^−1 s^−1
Km ([4]; restated in μM): 124 µM
Transfer to LysAlaAcm by AaT (in words) [1]: transferred efficiently
Conversion of LysAlaAcm after a second addition of donor ([1]; second addition of 1 mM 4a): completion
Ligated Product Yield (%) [1, 6]: 92% and 92.7 ± 5.2%
Ligated Product Yield (%) ([1]; single addition of donor, additive 1 mM pdCpA): 90.4 ± 0.9%

Nc1ncnc2c1ncn2[C@@H]1O[C@H](COP(=O)(O)OP(=O)(O)OP(=O)(O)O)[C@@H](O)[C@H]1O [ATP, adenosine triphosphate]
Inhibition of the reaction, comparison of adenosine compounds [5]: inhibited the reaction
